PubChem BioAssay AID256 (DTP/NCI, 2004)
Values joined by “and” are separate entries in the source; they are usually repeats but may differ in a detail not shown here. Identical values can stand only once. Inconclusive results and toxic doses are left out.

System: CD2F1 mice, L1210 leukemia ip, survival T/C
Assay: NCI In Vivo Anticancer Drug Screen. Data for tumor model L1210 Leukemia (intraperitoneal) in CD2F1 (CDF1) mice
Conditions: higher = longer survival
Summary of the method: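 Each value reflects a quotient of treated over vehicle control outcomes in mice with a transplanted tumor.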

[1] = endpoint: mean survival time, dose: 100.0 mg/kg/injection, schedule: Q04DX003 (ip), vehicle: saline with Tween-80
[2] = endpoint: mean survival time, dose: 200.0 mg/kg/injection, schedule: Q04DX003 (ip), vehicle: saline with Tween-80
[3] = endpoint: mean survival time, dose: 400.0 mg/kg/injection, schedule: Q04DX003 (ip), vehicle: saline with Tween-80
[4] = endpoint: mean survival time, dose: 50.0 mg/kg/injection, schedule: Q01DX009 (ip), vehicle: saline with Tween-80
[5] = endpoint: mean survival time, dose: 100.0 mg/kg/injection, schedule: Q01DX009 (ip), vehicle: saline with Tween-80
[6] = endpoint: mean survival time, dose: 200.0 mg/kg/injection, schedule: Q01DX009 (ip), vehicle: saline with Tween-80
[7] = endpoint: mean survival time, dose: 12.5 mg/kg/injection, schedule: Q01DX009 (ip), vehicle: saline with Tween-80
[8] = endpoint: mean survival time, dose: 25.0 mg/kg/injection, schedule: Q01DX009 (ip), vehicle: saline with Tween-80
[9] = endpoint: mean survival time, dose: 100.0 mg/kg/injection, schedule: Q01DX001 (ip), vehicle: saline with Tween-80
[10] = endpoint: mean survival time, dose: 100.0 mg/kg/injection, schedule: Q04DX002 (ip), vehicle: saline with Tween-80
[11] = endpoint: mean survival time, dose: 200.0 mg/kg/injection, schedule: Q01DX001 (ip), vehicle: saline with Tween-80
[12] = endpoint: mean survival time, dose: 200.0 mg/kg/injection, schedule: Q04DX002 (ip), vehicle: saline with Tween-80
[13] = endpoint: mean survival time, dose: 400.0 mg/kg/injection, schedule: Q01DX009 (ip), vehicle: saline with Tween-80
[14] = endpoint: mean survival time, dose: 400.0 mg/kg/injection, schedule: Q04DX002 (ip), vehicle: saline with Tween-80
[15] = endpoint: mean survival time, dose: 25.0 mg/kg/injection, schedule: Q01DX009 (ip), vehicle: other
[16] = endpoint: mean survival time, dose: 100.0 mg/kg/injection, schedule: Q04DX003 (ip), vehicle: saline
[17] = endpoint: mean survival time, dose: 200.0 mg/kg/injection, schedule: Q04DX003 (ip), vehicle: saline
[18] = endpoint: mean survival time, dose: 400.0 mg/kg/injection, schedule: Q04DX003 (ip), vehicle: saline
[19] = endpoint: mean survival time, dose: 50.0 mg/kg/injection, schedule: Q01DX009 (ip), vehicle: other
[20] = endpoint: mean survival time, dose: 100.0 mg/kg/injection, schedule: Q01DX009 (ip), vehicle: other
[21] = endpoint: mean survival time, dose: 100.0 mg/kg/injection, schedule: Q01DX001 (ip), vehicle: saline
[22] = endpoint: mean survival time, dose: 200.0 mg/kg/injection, schedule: Q01DX001 (ip), vehicle: saline
[23] = endpoint: mean survival time, dose: 400.0 mg/kg/injection, schedule: Q01DX001 (ip), vehicle: saline

O=C(O)CC1C(=O)OC2C3COC(=O)c4cc(O)c(O)c(O)c4-c4c(cc(O)c(O)c4O)C(=O)OC2C(OC(=O)c2cc(O)c(O)c4c2C1C(O)C(=O)O4)C(OC(=O)c1cc(O)c(O)c(O)c1)O3 (stereo unspecified)
T/C (endpoint: median survival time, dose: 3.12 mg/kg/injection, schedule: Q01DX009 (ip), vehicle: saline): 102 % of control | T/C (endpoint: median survival time, dose: 6.25 mg/kg/injection, schedule: Q01DX009 (ip), vehicle: saline): 98 % of control | T/C (endpoint: median survival time, dose: 12.5 mg/kg/injection, schedule: Q01DX009 (ip), vehicle: saline): 101 % of control | T/C (endpoint: median survival time, dose: 25.0 mg/kg/injection, schedule: Q01DX009 (ip), vehicle: saline): 98 % of control | T/C (endpoint: median survival time, dose: 50.0 mg/kg/injection, schedule: Q01DX009 (ip), vehicle: saline): 100 % of control

OC1CCCCC1O (stereo unspecified)
T/C [1]: 101 % of control | T/C [2]: 100 % of control | T/C [3]: 103 % of control

CN(C)/C=N\c1ncnc2c1cnn2C1OC(CO)C(O)C1O (stereo unspecified)
T/C (endpoint: mean survival time, dose: 3.13 mg/kg/injection, schedule: Q01DX005 (ip), vehicle: water): 96 % of control | T/C (endpoint: mean survival time, dose: 6.25 mg/kg/injection, schedule: Q01DX005 (ip), vehicle: water): 102 % of control | T/C (endpoint: mean survival time, dose: 12.5 mg/kg/injection, schedule: Q01DX005 (ip), vehicle: water): 110 % of control | T/C (endpoint: mean survival time, dose: 25.0 mg/kg/injection, schedule: Q01DX005 (ip), vehicle: water): 98 % of control and 107 % of control | T/C (endpoint: mean survival time, dose: 50.0 mg/kg/injection, schedule: Q01DX005 (ip), vehicle: water): 113 % of control and 110 % of control

COc1cc(OC)c(NC(=O)Nc2ccc(SCC(=O)O)cc2)cc1Cl
T/C [4]: 93 % of control | T/C [5]: 89 % of control | T/C [6]: 86 % of control

NC(=S)N/N=C/c1ccc(OC(=O)COc2ccccc2Cl)cn1
T/C [7]: 120 % of control | T/C [8]: 122 % of control | T/C (endpoint: mean survival time, dose: 50.0 mg/kg/injection, schedule: Q01DX001 (ip), vehicle: saline with Tween-80): 101 % of control | T/C (endpoint: mean survival time, dose: 50.0 mg/kg/injection, schedule: Q04DX003 (ip), vehicle: saline with Tween-80): 116 % of control and 118 % of control | T/C [9]: 108 % of control | T/C [5]: 159 % of control | T/C [10]: 103 % of control and 106 % of control | T/C [1]: 124 % of control | T/C [11]: 113 % of control | T/C [6]: 155 % of control | T/C [12]: 118 % of control and 107 % of control | T/C [3]: 152 % of control and 163 % of control

O=C(O)C1CCC(=O)N1C(=O)OCc1ccccc1 (stereo unspecified)
T/C [5]: 95 % of control | T/C [6]: 92 % of control | T/C [13]: 90 % of control

CN(C)C(=O)Nc1cc(Cl)ccc1Cl
T/C [10]: 97 % of control | T/C [12]: 108 % of control | T/C [14]: 120 % of control

Cc1nc2nc(N)[nH]c(=O)c2nc1C
T/C [9]: 95 % of control | T/C [11]: 98 % of control | T/C (endpoint: mean survival time, dose: 400.0 mg/kg/injection, schedule: Q01DX001 (ip), vehicle: saline with Tween-80): 90 % of control

O=[N+]([O-])O.[Cu+2].[NH-]C1CCCCC1[NH-].[NH-]C1CCCCC1[NH-] (stereo unspecified)
T/C (endpoint: mean survival time, dose: 12.5 mg/kg/injection, schedule: Q04DX002 (ip), vehicle: saline with Tween-80): 94 % of control

N#CC(O)Cc1ccccc1 (stereo unspecified)
T/C (endpoint: mean survival time, dose: 5.0 mg/kg/injection, schedule: Q04DX003 (ip), vehicle: saline): 98 % of control | T/C (endpoint: mean survival time, dose: 10.0 mg/kg/injection, schedule: Q04DX003 (ip), vehicle: saline): 98 % of control

c1ccc2c(CN3CC3)c[nH]c2c1
T/C (endpoint: mean survival time, dose: 22.0 mg/kg/injection, schedule: Q01DX009 (ip), vehicle: other): 101 % of control | T/C [15]: 109 % of control | T/C (endpoint: mean survival time, dose: 33.0 mg/kg/injection, schedule: Q01DX009 (ip), vehicle: other): 103 % of control | T/C [5]: 114 % of control | T/C [6]: 112 % of control

O=[N+]([O-])c1cc2ccccc2c(O)c1O
T/C [8]: 102 % of control | T/C [4]: 108 % of control | T/C [1]: 91 % of control

COC(=O)/C=C/C=C/C(=O)OC
T/C [5]: 96 % of control | T/C [1]: 103 % of control | T/C [6]: 96 % of control | T/C [2]: 112 % of control | T/C [13]: 104 % of control | T/C [3]: 103 % of control

O=C1C=CC(=O)N1Cc1ccco1
T/C [16]: 102 % of control | T/C [17]: 95 % of control | T/C [18]: 90 % of control

CCc1cc(C)cc(OC(=O)Nc2cccc(Cl)c2)c1
T/C [1]: 88 % of control | T/C [2]: 92 % of control | T/C [3]: 92 % of control

COc1cccc(NC(=O)NC2C(OC(C)=O)OC(COC(C)=O)C(OC(C)=O)C2OC(C)=O)c1 (stereo unspecified)
T/C (endpoint: mean survival time, dose: 12.5 mg/kg/injection, schedule: Q01DX009 (ip), vehicle: other): 98 % of control | T/C [15]: 98 % of control | T/C [19]: 90 % of control | T/C [20]: 90 % of control | T/C (endpoint: mean survival time, dose: 200.0 mg/kg/injection, schedule: Q01DX009 (ip), vehicle: other): 96 % of control

C/C(=N\O)c1ccc2ccc3ccccc3c2c1
T/C [21]: 100 % of control | T/C [16]: 102 % of control | T/C [22]: 95 % of control | T/C [17]: 100 % of control | T/C [23]: 100 % of control | T/C [18]: 97 % of control

C/C=C\C=C\C(=O)O
T/C [5]: 100 % of control | T/C [6]: 97 % of control | T/C [13]: 100 % of control

CCOC(=O)C(C=O)(CC)C(=O)OCC
T/C [5]: 97 % of control | T/C [6]: 94 % of control | T/C [13]: 103 % of control

[Cl][Pt+2][Cl].[NH-]Nc1nc2ccccc2s1.[NH-]Nc1nc2ccccc2s1
T/C (endpoint: mean survival time, dose: 5.0 mg/kg/injection, schedule: Q04DX003 (ip), vehicle: saline with Tween-80): 102 % of control | T/C (endpoint: mean survival time, dose: 10.0 mg/kg/injection, schedule: Q04DX003 (ip), vehicle: saline with Tween-80): 98 % of control | T/C (endpoint: mean survival time, dose: 20.0 mg/kg/injection, schedule: Q04DX003 (ip), vehicle: saline with Tween-80): 94 % of control | T/C (endpoint: mean survival time, dose: 40.0 mg/kg/injection, schedule: Q04DX003 (ip), vehicle: saline with Tween-80): 98 % of control | T/C (endpoint: mean survival time, dose: 80.0 mg/kg/injection, schedule: Q04DX003 (ip), vehicle: saline with Tween-80): 94 % of control

C1CN2CCOB(O1)OCC2
T/C [16]: 94 % of control | T/C [17]: 98 % of control | T/C [18]: 93 % of control

Clc1ccc(N=C/C=C/c2ccccc2)cc1
T/C [15]: 101 % of control | T/C [19]: 97 % of control | T/C [20]: 95 % of control | T/C (endpoint: mean survival time, dose: 100.0 mg/kg/injection, schedule: Q04DX003 (ip), vehicle: other): 87 % of control | T/C (endpoint: mean survival time, dose: 400.0 mg/kg/injection, schedule: Q04DX003 (ip), vehicle: other): 89 % of control

CCOC(C=O)OCC
T/C [21]: 103 % of control | T/C [22]: 97 % of control | T/C [23]: 103 % of control

Cc1ccc(NC(=O)CI)cc1
T/C (endpoint: mean survival time, dose: 100.0 mg/kg/injection, schedule: Q04DX002 (ip), vehicle: other): 102 % of control

CCN(CC)CC(C)(C)CO
T/C [4]: 104 % of control | T/C [5]: 95 % of control | T/C [1]: 92 % of control | T/C [6]: 98 % of control | T/C [2]: 97 % of control

Cc1ccc(NC(=O)Nc2ccccc2C(N)=O)cc1C
T/C [7]: 95 % of control | T/C [8]: 102 % of control | T/C [4]: 95 % of control | T/C [5]: 92 % of control | T/C [6]: 92 % of control

CC(SC(C)c1ccccc1)c1ccccc1 (stereo unspecified)
T/C [5]: 98 % of control | T/C [1]: 90 % of control | T/C [6]: 98 % of control | T/C [2]: 93 % of control | T/C [13]: 102 % of control | T/C [3]: 90 % of control

CC(C)CC(NC(=O)c1ccccc1)C(N)=O (stereo unspecified)
T/C [1]: 101 % of control | T/C [2]: 97 % of control | T/C [3]: 92 % of control

CN(CCC#N)Cc1cc(C(C)(C)C)cc(-c2ccccc2)c1O
T/C [5]: 90 % of control | T/C [6]: 90 % of control

O=C(O)c1ccc(OCCOc2ccccc2)cc1
T/C (endpoint: mean survival time, dose: 66.0 mg/kg/injection, schedule: Q04DX003 (ip), vehicle: saline sonified): 101 % of control | T/C (endpoint: mean survival time, dose: 100.0 mg/kg/injection, schedule: Q04DX003 (ip), vehicle: saline sonified): 96 % of control | T/C (endpoint: mean survival time, dose: 150.0 mg/kg/injection, schedule: Q04DX003 (ip), vehicle: saline sonified): 107 % of control

COc1ccc(OCc2ccc(OC)c(OC)c2)cc1
T/C [10]: 91 % of control | T/C [12]: 87 % of control | T/C [14]: 91 % of control

Cc1cccc(NNC(=S)Nc2ccccc2)c1
T/C [16]: 94 % of control | T/C [17]: 100 % of control | T/C [18]: 100 % of control

Nc1ccc2oc(=O)c(C(=O)O)cc2c1
T/C [9]: 93 % of control | T/C [11]: 89 % of control
